In patent publication US20230304010A1, “COMPOSITIONS AND METHODS FOR TREATING VIRAL INFECTIONS” (priority 2020, published 2023):
Several values for one entry are separate records, joined by “and”; a condition that tells them apart may be missing. Identical values can stand only once. Like-named read-outs stand apart in the source and are kept apart here. Ends that are not written are not given here. Peptide text beside a SMILES is read from it.

Legend:
[1] = target: ACE2:SARS-CoV-2 Spike interaction (UniProt P0DTC2+Q9BYF1); experiment: biochemical; type: binding
Chain of ACE2:SARS-CoV-2 Spike interaction (Q9BYF1 18-740, one chain of several): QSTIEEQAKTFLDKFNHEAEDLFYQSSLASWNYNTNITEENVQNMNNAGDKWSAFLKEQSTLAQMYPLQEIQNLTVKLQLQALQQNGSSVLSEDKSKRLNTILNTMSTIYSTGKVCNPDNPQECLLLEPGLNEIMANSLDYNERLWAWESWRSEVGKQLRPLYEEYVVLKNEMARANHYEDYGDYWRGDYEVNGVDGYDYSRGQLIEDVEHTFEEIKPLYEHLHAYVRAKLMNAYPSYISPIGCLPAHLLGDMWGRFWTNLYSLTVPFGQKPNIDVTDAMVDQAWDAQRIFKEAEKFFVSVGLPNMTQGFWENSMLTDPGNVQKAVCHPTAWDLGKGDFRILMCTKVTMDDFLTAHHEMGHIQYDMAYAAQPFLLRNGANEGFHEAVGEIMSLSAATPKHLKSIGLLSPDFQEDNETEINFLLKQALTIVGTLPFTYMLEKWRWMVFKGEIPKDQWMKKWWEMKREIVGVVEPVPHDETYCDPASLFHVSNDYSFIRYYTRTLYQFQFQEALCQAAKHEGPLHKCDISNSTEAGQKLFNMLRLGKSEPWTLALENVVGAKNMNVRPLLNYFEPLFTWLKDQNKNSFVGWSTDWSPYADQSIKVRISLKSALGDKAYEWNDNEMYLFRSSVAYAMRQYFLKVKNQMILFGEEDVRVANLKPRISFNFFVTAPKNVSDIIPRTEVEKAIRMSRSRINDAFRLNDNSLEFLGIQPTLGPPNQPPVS

[2] = target: SARS-CoV-2 Spike: ACE2 interaction (UniProt P0DTC2+Q9BYF1); experiment: biochemical; type: binding
Chain of SARS-CoV-2 Spike: ACE2 interaction (Q9BYF1 18-740, one chain of several): as above

[3] = Nanoparticle formation of peptides with ADGN-106: mean size and polydispersity (Zetasizer); type: physicochemical; settings: 25° C.; for Mean Size (nm): peptide/ADGN-106 complexes; for PI: polydispersity index of peptide/ADGN-106 complexes
From the text: We then tested the ability of the different peptides to form nanoparticle organization in the presence of ADGN-106 or ADGN-100 peptide. […] Peptides were complexed with 5 or 10 molar excess of ADGN-106.

[4] = read-out: ACE2:SARS-CoV-2 Spike IC50
[5] = read-out: SARS-CoV-2 Spike:ACE2 IC50
[6] = IC50, block of ACE2:SARS-CoV-2 Spike interaction
[7] = IC50, block of SARS-CoV-2 Spike: ACE2 interaction

| Compound | IC50 ([1]; ACE2:SARS-CoV-2 Spike IC50) [µM] | IC50 ([2]; SARS-CoV-2 Spike:ACE2 IC50) [µM] | further results |
| --- | --- | --- | --- |
| CC(C)C[C@H](NC(=O)[C@H](Cc1ccc(O)cc1)NC(=O)[C@H](CC(N)=O)NC(=O)[C@H](Cc1ccc(O)cc1)NC(=O)[C@H](CC(N)=O)NC(=O)CNC(=O)CNC(=O)[C@@H](NC(=O)[C@H](CCCCN)NC(=O)[C@@H](N)CO)C(C)C)C(=O)N[C@@H](Cc1ccc(O)cc1)C(=O)N[C@@H](CCCNC(=N)N)C(=O)O [Seq1] | > 10 | > 10 |  |
| CC(C)C[C@H](NC(=O)[C@H](CCCNC(=N)N)NC(=O)[C@H](Cc1ccc(O)cc1)NC(=O)[C@H](CC(C)C)NC(=O)[C@H](Cc1ccc(O)cc1)NC(=O)[C@H](CC(N)=O)NC(=O)[C@H](Cc1ccc(O)cc1)NC(=O)[C@H](CC(N)=O)NC(=O)CNC(=O)CN)C(=O)N[C@@H](Cc1ccccc1)C(=O)N[C@@H](CCCNC(=N)N)C(=O)N[C@@H](CCCCN)C(=O)O [Seq4] | > 10 | > 10 |  |
| CC(C)[C@H](NC(=O)CNC(=O)[C@H](CC(N)=O)NC(=O)[C@@H](N)CS)C(=O)N[C@@H](CCC(=O)O)C(=O)NCC(=O)N[C@@H](Cc1ccccc1)C(=O)N[C@@H](CC(N)=O)C(=O)N[C@@H](CS)C(=O)O [Seq6] (H-CNGVEGFNC-OH) | > 10 | > 10 |  |
| CC(C)C[C@H](NC(=O)[C@@H]1CCCN1C(=O)[C@H](Cc1ccccc1)NC(=O)[C@@H](N)Cc1ccc(O)cc1)C(=O)N[C@@H](CCC(N)=O)C(=O)N[C@@H](CO)C(=O)N[C@@H](Cc1ccc(O)cc1)C(=O)NCC(=O)N[C@@H](Cc1ccccc1)C(=O)N[C@@H](CCC(N)=O)C(=O)N1CCC[C@H]1C(=O)N[C@H](C(=O)N[C@@H](CC(N)=O)C(=O)NCC(=O)N[C@H](C(=O)NCC(=O)N[C@@H](Cc1ccc(O)cc1)C(=O)N[C@@H](CCC(N)=O)C(=O)O)C(C)C)[C@@H](C)O [Seq8] | > 10 | > 10 |  |
| CC(=O)N[C@@H](CCCCN)C(=O)N[C@H](C(=O)N[C@@H](Cc1ccccc1)C(=O)N[C@@H](CC(C)C)C(=O)N[C@@H](CC(=O)O)C(=O)N[C@@H](CCCCN)C(=O)N[C@@H](Cc1ccccc1)C(=O)N[C@@H](CC(N)=O)C(=O)N[C@@H](Cc1c[nH]cn1)C(=O)N[C@@H](CCC(=O)O)C(=O)N[C@@H](C)C(=O)N[C@@H](CCC(=O)O)C(=O)N[C@@H](CC(=O)O)C(=O)N[C@@H](CC(C)C)C(=O)N[C@@H](Cc1ccccc1)C(=O)N[C@@H](Cc1ccc(O)cc1)C(=O)N[C@@H](CO)C(=O)NCCCCCC(=O)N[C@@H](CC(C)C)C(=O)N[C@@H](Cc1c[nH]c2ccccc12)C(=O)N[C@@H](CCCNC(=N)N)C(=O)N[C@@H](C)C(=O)N[C@@H](CC(C)C)C(=O)N[C@@H](Cc1c[nH]c2ccccc12)C(=O)N[C@@H](CCCNC(=N)N)C(=O)N[C@@H](CC(C)C)C(=O)N[C@@H](Cc1c[nH]c2ccccc12)C(=O)N[C@@H](CCCNC(=N)N)C(=O)N[C@@H](CO)C(=O)N[C@@H](CC(C)C)C(=O)N[C@@H](Cc1c[nH]c2ccccc12)C(=O)N[C@@H](CCCNC(=N)N)C(=O)N[C@@H](CC(C)C)C(=O)N[C@@H](CC(C)C)C(=O)N[C@@H](Cc1c[nH]c2ccccc12)C(=O)N[C@@H](CCCCN)C(N)=O)[C@@H](C)O [Seq35] | 0.728 | 0.546 | Mean Size (nm) [3]: 44 ± 10 nm; PI [3]: 0.22 |
| CC[C@H](C)[C@H](NC(=O)[C@H](CCCNC(=N)N)NC(=O)[C@H](Cc1ccccc1)NC(=O)[C@H](CC(=O)O)NC(=O)CNC(=O)[C@H](CCCCN)NC(=O)CNC(=O)[C@H](CC(C)C)NC(=O)[C@H](CC(=O)O)NC(=O)[C@H](Cc1c[nH]c2ccccc12)NC(=O)[C@H](C)NC(=O)[C@@H](NC(C)=O)[C@@H](C)O)C(=O)NCCCCCC(=O)N[C@@H](CC(C)C)C(=O)N[C@@H](Cc1c[nH]c2ccccc12)C(=O)N[C@@H](CCCNC(=N)N)C(=O)N[C@@H](C)C(=O)N[C@@H](CC(C)C)C(=O)N[C@@H](Cc1c[nH]c2ccccc12)C(=O)N[C@@H](CCCNC(=N)N)C(=O)N[C@@H](CC(C)C)C(=O)N[C@@H](Cc1c[nH]c2ccccc12)C(=O)N[C@@H](CCCNC(=N)N)C(=O)N[C@@H](CO)C(=O)N[C@@H](CC(C)C)C(=O)N[C@@H](Cc1c[nH]c2ccccc12)C(=O)N[C@@H](CCCNC(=N)N)C(=O)N[C@@H](CC(C)C)C(=O)N[C@@H](CC(C)C)C(=O)N[C@@H](Cc1c[nH]c2ccccc12)C(=O)N[C@@H](CCCCN)C(N)=O [Seq36] | > 1 | > 1 |  |
| CSCC[C@H](NC(=O)[C@H](CO)NC(=O)[C@H](CC(N)=O)NC(=O)[C@H](CCC(=O)O)NC(=O)[C@H](Cc1c[nH]c2ccccc12)NC(=O)[C@H](Cc1ccccc1)NC(=O)CNC(=O)[C@H](CCC(N)=O)NC(=O)[C@@H](NC(=O)[C@H](CCSC)NC(=O)[C@H](CC(N)=O)NC(C)=O)[C@@H](C)O)C(=O)N[C@@H](CC(C)C)C(=O)N[C@H](C(=O)N[C@@H](CC(=O)O)C(=O)NCCCCCC(=O)N[C@@H](CC(C)C)C(=O)N[C@@H](Cc1c[nH]c2ccccc12)C(=O)N[C@@H](CCCNC(=N)N)C(=O)N[C@@H](C)C(=O)N[C@@H](CC(C)C)C(=O)N[C@@H](Cc1c[nH]c2ccccc12)C(=O)N[C@@H](CCCNC(=N)N)C(=O)N[C@@H](CC(C)C)C(=O)N[C@@H](Cc1c[nH]c2ccccc12)C(=O)N[C@@H](CCCNC(=N)N)C(=O)N[C@@H](CO)C(=O)N[C@@H](CC(C)C)C(=O)N[C@@H](Cc1c[nH]c2ccccc12)C(=O)N[C@@H](CCCNC(=N)N)C(=O)N[C@@H](CC(C)C)C(=O)N[C@@H](CC(C)C)C(=O)N[C@@H](Cc1c[nH]c2ccccc12)C(=O)N[C@@H](CCCCN)C(N)=O)[C@@H](C)O [Seq37] | 0.645 | > 1 | Mean Size (nm) [3]: 59.2 ± 14 nm; PI [3]: 0.24 |
| CSCC[C@H](NC(=O)[C@H](CCC(N)=O)NC(=O)[C@H](C)NC(=O)[C@H](CC(C)C)NC(=O)[C@@H](NC(=O)[C@H](CO)NC(=O)[C@H](CCC(N)=O)NC(=O)[C@H](CCC(=O)O)NC(=O)[C@H](CCCCN)NC(=O)[C@H](CC(C)C)NC(=O)[C@H](Cc1ccccc1)NC(=O)[C@H](C)NC(=O)[C@H](CO)NC(=O)[C@H](Cc1c[nH]c2ccccc12)NC(=O)[C@H](CCCCN)NC(=O)[C@@H]1CCCN1C(=O)[C@H](Cc1ccccc1)NC(=O)[C@H](CC(C)C)NC(=O)[C@H](CC(=O)O)NC(=O)[C@H](CCC(=O)O)NC(=O)[C@H](C)NC(=O)[C@H](CCC(=O)O)NC(=O)[C@H](Cc1c[nH]cn1)NC(=O)[C@H](CC(N)=O)NC(=O)[C@H](Cc1ccccc1)NC(=O)[C@H](CCCCN)NC(=O)[C@H](CC(=O)O)NC(=O)[C@H](CC(C)C)NC(=O)[C@H](Cc1ccccc1)NC(=O)[C@@H](NC(=O)[C@H](CCCCN)NC(=O)[C@H](C)NC(=O)[C@H](CCC(N)=O)NC(=O)[C@H](CCC(=O)O)NC(C)=O)[C@@H](C)O)[C@@H](C)O)C(=O)N[C@@H](Cc1ccc(O)cc1)C(=O)NCC(=O)NCCCCCC(=O)N[C@@H](CC(C)C)C(=O)N[C@@H](Cc1c[nH]c2ccccc12)C(=O)N[C@@H](CCCNC(=N)N)C(=O)N[C@@H](C)C(=O)N[C@@H](CC(C)C)C(=O)N[C@@H](Cc1c[nH]c2ccccc12)C(=O)N[C@@H](CCCNC(=N)N)C(=O)N[C@@H](CC(C)C)C(=O)N[C@@H](Cc1c[nH]c2ccccc12)C(=O)N[C@@H](CCCNC(=N)N)C(=O)N[C@@H](CO)C(=O)N[C@@H](CC(C)C)C(=O)N[C@@H](Cc1c[nH]c2ccccc12)C(=O)N[C@@H](CCCNC(=N)N)C(=O)N[C@@H](CC(C)C)C(=O)N[C@@H](CC(C)C)C(=O)N[C@@H](Cc1c[nH]c2ccccc12)C(=O)N[C@@H](CCCCN)C(N)=O [Seq39] | 0.0684 ± 0.01 | 0.0552 | increase of potency/efficiency by covalent coupling to ADGN peptide [1]: 1.4 folds; Mean Size (nm) [3]: 48.5 ± 5 nm; PI [3]: 0.29 |
| Ac-EQAKTFLDKFNHEAEDLF [Seq24] | 0.57 ± 0.03 | 1.3 |  |
| Ac-G*NYNYLYRL*-Ava-LWRALWRLWRSLWRLLWK-NH2 [Seq14] |  |  | IC50 [1, 4]: > 10 µM; IC50 [2, 5]: > 10 µM |
| Ac-K*VGGNYNYK*-Ava-LWRALWRLWRSLWRLLWK-NH2 [Seq13] |  |  | IC50 [1, 4]: > 10 µM; IC50 [2, 5]: > 10 µM |
| Ac-KTFLDKFNHEAEDLF [Seq25] | 1.9 | 2.5 |  |
| Ac-KTFLDKFNHEAEDLFYS [Seq26] | 2.1 | 1.9 |  |
| Ac-NMTQGFWENPGGPTAWDLGK [Seq31] | > 10 | > 10 | IC50 [1, 6]: > 10 µM and 25 µM; IC50 [2, 7]: > 10 µM |
| Ac-NMTQGFWENSMLTD [Seq30] | > 10 | > 10 | IC50 [1, 6]: > 10 µM; IC50 [2, 7]: > 10 µM |
| Ac-S*KVGGNYNYLY*R-Ava/Ahx-LWRALWRLWRSLWRLLWK-NH2 [Seq12] |  |  | blocked ACE2:SARS-CoV-2 Spike interaction [1]: blocked; Mean Size (nm) [3]: 35.4 ± 5 nm; PI [3]: 0.21 |
| Ac-TAWDLGKGDFRI [Seq29] | > 10 | > 10 | IC50 [1, 6]: > 10 µM; IC50 [2, 7]: > 10 µM |
| Ac-V*EGENCYF*Ava-LWRALWRLWRSLWRLLWK-NH2 [Seq18] |  |  | IC50 [1, 4]: > 10 µM; IC50 [2, 5]: > 10 µM |
| GFQPTNGVK [Seq10] | > 10 | > 10 |  |
| GNYNYLYRL [Seq3] | > 10 | > 10 |  |
| KVGGNYNYL [Seq2] | > 10 | > 10 |  |
| STEYQAGST [Seq5] | > 10 | > 10 |  |
| SYGFQPTNGV [Seq9] | > 10 | > 10 |  |
| TNGVGYQPY [Seq11] | > 1 | > 1 |  |
| VEGFNCYFP [Seq7] | > 10 | > 10 |  |
